The test relates to EGFR (Del19/T790M/C797S). As to the kind of experiment: Cell degradation HTRF assay, H1975-clone #28 cells. The conditions noted are these: H1975-clone #28 (Del19/T790M/C797S) cells, 16 h treatment; for DC50: HTRF, read-out: H1975-clone#28 DTC DC50; for H1975-clone#28 DTC Dmax (%): maximum percentage of degradation. The test is classed as cell-based. As to the method: Cell Degradation of Example 124-189
H1975-#28 and H1975-#25 cells are treated with compounds diluted in 0.2% DMSO cell culture medium on day 2, incubate for 16 h, 37° C., 5% CO2. the final concentration of compounds in all assay is start with 10 uM, 5-fold dilution, total 8 doses were included.
After 16 h treatment, add HTRF lysis buffer to each well; seal the plate and incubate 1 hour at room temperature on a plate shaker; Once the cells are lysed, 16 μL of cell lysate are transferred to a PE 384-well HTRF detection plate; 4 μL of pre-mixed HTRF antibodies are added to each well; Cover the plate with a plate sealer, spin 1000 rpm for 1 min, Incubate overnight at room temperature; Read on BMG PheraStar with HTRF protocol (337 nm-665 nm-620 nm).
The inhibition (degradation) percentage of the compound was calculated by the following equation:
Inhibition percentage of Compound=100−100×(Signal−low control)/(High control−low control), wherein signal=each test compound group.
High control=Cell group with added DMSO and without compound, indicating microplate readings without EGFR degradation;
Dmax is the maximum percentage of inhibition (degradation).
The IC50 (DC50) value of a compound can be obtained by fitting the following equation
Y=Bottom+(TOP−Bottom)/(1+((IC50/X)^hillslope))
Wherein, X and Y are known values, and IC50, Hillslope, Top and Bottom are the parameters obtained by fitting with software. Y is the inhibition percentage (calculated from the equation), X is the concentration of the compound; IC50 is the concentration of the compound when the 50% inhibition is reached. The smaller the IC50 value is, the stronger the inhibitory ability of the compound is. Vice versa, the higher the IC50 value is, the weaker the ability the inhibitory ability of the compound is; Hillslope represents the slope of the fitted curve, generally around 1*; Bottom represents the minimum value of the curve obtained by data fitting, which is generally 0%±20%; Top represents the maximum value of the curve obtained by data fitting, which is generally 100%±20%. The experimental data were fitted by calculating and analyzing with Dotmatics data analysis software. When Dmax<50%, DC50 will be automatically assigned as larger than […].
(In general: In TR-FRET formats the signal depends on donor and acceptor labels being close together.)

Experimental findings from US20240165243A1, “EGFR DEGRADERS AND METHODS OF USE” (BeiGene Switzerland GmbH, priority 2021, published 2024) are described below.

What is called DC50 is the midpoint of the concentration-degradation curve.

As for `CCc1cc(Nc2ncc(Br)c(Nc3cnc4ccccc4c3P(C)(C)=O)n2)c(OC)cc1N1CCC(N2CCN(CCc3ccc(F)c4c3oc(=O)n4[C@H]3CCC(=O)NC3=O)CC2)CC1` [Example 126, (S)-3-(7-(2-(4-(1-(4-((5-bromo-4-((4-(dimethylphosphoryl)quinolin-3-yl)amino)pyrimidin-2-yl)amino)-2-ethyl-5-methoxyphenyl)piperidin-4-yl)piperazin-1-yl)ethyl)-4-fluoro-2-oxobenzo[d]oxazol-3(2H)-yl)piperidine-2,6-dione], the DC50 was 1.3 nM and the “H1975-clone#28 DTC Dmax (%)” value turned out to be 84%.

`CCOc1cc(N2CCC(N3CCN(CCc4c(F)ccc5c4n(C)c(=O)n5C4CCC(=O)NC4=O)CC3)CC2)c(CC)cc1Nc1ncc(Br)c(Nc2cnc3ccccc3c2P(C)(C)=O)n1` (stereo not drawn) [Example 137, 3-(4-(2-(4-(1-(4-((5-bromo-4-((4-(dimethylphosphoryl)quinolin-3-yl)amino)pyrimidin-2-yl)amino)-5-ethoxy-2-ethylphenyl)piperidin-4-yl)piperazin-1-yl)ethyl)-5-fluoro-3-methyl-2-oxo-2,3-dihydro-1H-benzo[d]imidazol-1-yl) piperidine-2,6-dione]: the DC50 is 2.1 nM and the “H1975-clone#28 DTC Dmax (%)” value was found to be 86%.

Consider `CCc1cc(Nc2ncc(Br)c(Nc3cnc4ccc(F)cc4c3P(C)(C)=O)n2)c(OC)cc1N1CCC(N2CCN(CCc3cc(F)c(C4CCC(=O)NC4=O)c(F)c3)CC2)CC1` (stereo not drawn) [Example 174, 3-(4-(2-(4-(1-(4-((5-bromo-4-((4-(dimethylphosphoryl)-6-fluoroquinolin-3-yl)amino)pyrimidin-2-yl)amino)-2-ethyl-5-methoxyphenyl)piperidin-4-yl)piperazin-1-yl)ethyl)-2,6-difluorophenyl)piperidine-2,6-dione], for which the DC50 was 1.8 nM and the “H1975-clone#28 DTC Dmax (%)” value is on record as 80%.

As for `CCOc1cc(N2CCC(N3CCN(CCc4ccc5c(c4)oc(=O)n5C4CCC(=O)NC4=O)CC3)CC2)c(CC)cc1Nc1ncc(Br)c(Nc2cnc3cc(F)ccc3c2P(C)(C)=O)n1` (stereo not drawn) [Example 149, 3-(6-(2-(4-(1-(4-((5-bromo-4-((4-(dimethylphosphoryl)-7-fluoroquinolin-3-yl)amino)pyrimidin-2-yl)amino)-5-ethoxy-2-ethylphenyl)piperidin-4-yl)piperazin-1-yl)ethyl)-2-oxobenzo[d]oxazol-3(2H)-yl)piperidine-2,6-dione], the DC50 amounted to 1.3 nM and the “H1975-clone#28 DTC Dmax (%)” value worked out at 73%.

On to `CCc1cc(Nc2ncc(Br)c(Nc3cnc4ccccc4c3P(C)(C)=O)n2)c(OC)cc1N1CCC(N2CCN([C@H]3C[C@H](c4cc(F)c(C5CCC(=O)NC5=O)c(F)c4)C3)CC2)CC1` (stereo partly drawn) [Example 184, 3-(4-((1r,3r)-3-(4-(1-(4-((5-bromo-4-((4-(dimethylphosphoryl)quinolin-3-yl)amino)pyrimidin-2-yl)amino)-2-ethyl-5-methoxyphenyl)piperidin-4-yl)piperazin-1-yl)cyclobutyl)-2,6-difluorophenyl)piperidine-2,6-dione], for which the DC50 turned out to be 1.5 nM and the “H1975-clone#28 DTC Dmax (%)” value was determined as 81%.

As to `CCc1cc(Nc2ncc(Br)c(Nc3cnc4ccccc4c3P(C)(C)=O)n2)c(OC)cc1N1CCC(N2CCN(C(=O)C3CCN(c4cc(F)c(C5CCC(=O)NC5=O)c(F)c4)CC3)CC2)CC1` (stereo not drawn) [Example 185, 3-(4-(4-(4-(1-(4-((5-bromo-4-((4-(dimethylphosphoryl)quinolin-3-yl)amino)pyrimidin-2-yl)amino)-2-ethyl-5-methoxyphenyl)piperidin-4-yl)piperazine-1-carbonyl)piperidin-1-yl)-2,6-difluorophenyl)piperidine-2,6-dione], the DC50 was determined as 1.2 nM and the “H1975-clone#28 DTC Dmax (%)” value is reported as 71%.
